Measured values from patent US20090064375A1, “Paraquat Resistance Gene and a Vascular Tissue- and Trichome-specific Promoter” (priority 2003, published 2009).

Test system: non-transformant (wild-type Arabidopsis thaliana ecotype Col-0)
Assay: Evaluation of paraquat resistance: growth of germinated individuals in paraquat-containing ½ MS medium, non-transformant
Assay type: in vivo
Details: 3 μM of paraquat in ½ MS agar medium, cultured for eight days at 22° C., FIG. 2C
Method: Seeds derived from the produced AtMVR gene transformant and non-transformant (wild-type Arabidopsis thaliana ecotype Col-0) were sterilely inoculated in ½ MS agar (1%) medium (2.3 g/l of Murashige and Skoog Plant Salt Mixture (Wako Pure Chemical Industries Ltd.), 1.5 mg/l of thiamine hydrochloride, 2.5 mg/l of nicotinic acid, 0.25 mg/l of pyridoxine hydrochloride, 1.5% of sucrose) containing 3 μM of paraquat (methyl viologen (Sigma Chemical Co.)), and cultured for eight days at 22° C. under irradiation of light of 60 μmol/m^2/s (cycle of 16 hrs photoperiod/8 hrs dark period). After culture, the growth of germinated individuals was evaluated. The results are shown in FIG. 2, wherein FIG. 2B is a photograph showing growth of an AtMVR gene transformant and a non-transformant in a ½ MS culture medium without paraquat, and FIG. 2C is a photograph showing growth of an AtMVR gene transformant and a non-transformant in a ½ MS culture medium with paraquat. FIG. 2A is a schematic diagram showing the location of the AtMVR gene transformant and the non-transformant in FIGS. 2B and 2C.

## C[n+]1ccc(-c2cc[n+](C)cc2)cc1 [paraquat]
  growth of germinated individuals in a medium containing paraquat: developed chlorosis and died
